From patent US20230321025A1, “METHOD AND COMPOUND FOR THE TREATMENT AND ELIMINATION OF AN IMMUNODEFICIENCY CONDITION” (priority 2020, published 2023)
≈ marks a conversion by molar mass, not a printed value. Where “and” joins values, the source holds several entries; their conditions need not be identical. Identical values can stand only once.

Assays:
Assay type in all cases: cell-based
[1] = system: multi-drug resistant HIV-1 (MDR-27221); assay: Inhibitory activity against multi-drug resistant HIV-1 clinical isolate; conditions: MDR-27221 strain
Text: Furthermore, a resistance conferring mutation has been identified for virtually all antiretroviral agents in clinical practice. A test virus parental stock originated from a genotypic antiretroviral resistance test (GART) study. Additionally, a clinical isolate was pre-confirmed for genetic and phenotypic variance prior to this test. […] Accordingly, the fact that 90I may be effective against MDR viruses with multiple modes of action, it can replace the need for combination HIV drug therapy. This finding may be highly significant because typical current single target-oriented designer antiretroviral drugs have seriously been challenged by resistant viruses. Due to natural selection, the HIV-1 virus may have developed several survival strategies that include mutation.

[2] = system: HIV-1 (RF); assay: microbe, parasite or virus in culture; conditions: for Efficacy testing, optical density of single wells: listed as R2K18001 (90I)
Text: This assay was used to test the effectiveness of anti-HIV drug monotherapy in the established T-cell line CEM-SS infected with HIV-1RF, HIV-1IIIb, HIV-2ROD, or other cytolytic variants of HIV.
The drugs were solubilized in DMSO (dimethyl sulfoxide). […] CEM-SS cells were in logarithmic growth phase at the time of experimentation. Virus (HIV-1RF) stocks that past the necessary quality controls (killing effect on the type of cells used, limited variability, etc) were thawed and maintained on ice until required for addition.
Half-log serial dilutions of the antiviral agent or compound of the invention, H2K1001 (90i), were made in tissue culture media (RPMI 1640 without phenol red, supplemented with 10% heat inactivated fetal bovine serum, 1% L-Glutamine, 1% Pen/Strep and 50 ug/ml gentimycin). Virus, cell, drug and diluent (ethanol) controls were included for these tests. Virus was added after cells and drugs were mixed. Cell, drug, and virus containing cultures were incubated for six (6) days without additional feeding at which time the cultures were evaluated macroscopically and microscopically for cell toxicity, and the tetrazolium salt […] was added for quantitation by the colorimetric determination of formazan production (optical density).
Drug efficacy and cytotoxicity effects were determined six days after infection by the metabolic reduction of the tetrazolium salt XTT to its‘ formazan by surviving cells and was quantitated by determination of optical density at 450 nm with background subtraction at 650 nm (Tables 1-4).
The drug plate analysis reports from this assay are provided below in Tables 1-4. Calculated endpoints (EC50, etc.) were determined using Cho and Cho Median Effect Equation (Daids Virology Manual for HIV Laboratories, Compiled by The Division of Aids, National Institute of Allergy and Infectious Diseases, National Institutes of Health and Collaborating Investigators, Version January 1997).

[3] = system: peripheral blood mononuclear cells (PBMC); assay: Drug-induced cytotoxicity in PBMC (MTS); conditions: for Toxicity testing, mean optical density: human, 7 days
Procedure: Drug efficacy was determined by the production of supernatant HIV-1 p24. Drug-induced cytotoxicity was determined by the metabolic reduction of tetrazolium salts (MTS; Promega).
The antiviral drug or agent of the invention, H2K-1001 (90i), was solubilized. PBMCs, stimulated with PHA (phytohemagglutinin) for three days were employed throughout. Virus stocks (U.S. Clinical isolates) grown in PBMCs only, that past the necessary quality controls (i.e., replicate to high titer in PBMCs and meet the requirements as to genotype and phenotype) were rapidly thawed and maintained on ice until required for infection.
Virus and cell controls were included on each test plate. Virus was added after cells and drugs were mixed. Cell, drug and virus containing cultures were incubated for seven (7) days with an interim feeding at day three or four.
Supernatants were sampled at seven days for p24 determination by antigen capture ELISA. Cytotoxicity was measured by the metabolic reduction of the tetrazolium salt according to the manufacturer’s (Promega) recommendations.
The drug analysis reports from these studies are provided below in Tables 7-10. Efficacy (EC50) and viability (IC50) determinations were made using Cho and Cho Median Effect Equation, as noted above. Efficacy is expressed as the 50% effective concentration (EC50) and drug induced toxicity as the 50% inhibitory concentration (IC50).

[4] = system: chronically HIV-1 infected H9 cells; assay: Co-cultivation study with chronically HIV-1 infected H9 cells
Text: Viral pathogenesis in co-cultivation of infected cells with uninfected target cells presents a complex system with several target sites (attachment, fusion, transcription, processing, packaging and budding).
In many documented antiretroviral studies, the co-culture system is conventionally used to isolate the virus as well as to study cell-to-cell transmission or to determine if a given compound blocks cell fusion. H2K1001 and/or 90I may use aggressive intervention that could possibly be directed to at least one of a late phase, early fusion and/or attachment, and both early and late. However, judging from the variety of 90I results, early and late mode of action is consistent to this compound.

O=C(OCCOCCOC(=O)c1ccccc1)c1ccccc1 [90I, diethylene glycol dibenzoate]
EC50 ([1]; Human immunodeficiency virus 1): 3 µg/mL
TI [1]: > 333
Efficacy % CC ([2]; 0.01 ug/ml): 42 % CC
Efficacy testing, mean optical density ([2]; 0.01 ug/ml): 1.0282
Efficacy testing, optical density of single wells ([2]; 0.01 ug/ml): 0.9892 and 1.0238 and 1.0477
Efficacy % CC ([2]; 0.03 ug/ml): 80 % CC
Efficacy testing, mean optical density ([2]; 0.03 ug/ml): 1.9368
Efficacy testing, optical density of single wells ([2]; 0.03 ug/ml): 2.0839 and 1.6926 and 2.0343
Efficacy % CC ([2]; 0.1 ug/ml): 87 % CC
Efficacy testing, mean optical density ([2]; 0.1 ug/ml): 2.1073
Efficacy testing, optical density of single wells ([2]; 0.1 ug/ml): 2.2196 and 2.0140 and 2.0883
Efficacy % CC ([2]; 0.3 ug/ml): 83 % CC
Efficacy testing, mean optical density ([2]; 0.3 ug/ml): 2.0091
Efficacy testing, optical density of single wells ([2]; 0.3 ug/ml): 2.1099 and 1.8158 and 2.1016
Efficacy % CC ([2]; 1 ug/ml): 84 % CC
Efficacy testing, mean optical density ([2]; 1 ug/ml): 2.0264
Efficacy testing, optical density of single wells ([2]; 1 ug/ml): 2.2771 and 1.9186 and 1.8914
Efficacy % CC ([2]; 3 ug/ml): 84 % CC
Efficacy testing, mean optical density ([2]; 3 ug/ml): 2.0459
Efficacy testing, optical density of single wells ([2]; 3 ug/ml): 2.2499 and 1.9311 and 1.9576
Efficacy % CC ([2]; 10 ug/ml): 82 % CC
Efficacy testing, mean optical density ([2]; 10 ug/ml): 1.9797
Efficacy testing, optical density of single wells ([2]; 10 ug/ml): 2.0385 and 2.0038 and 1.8968
Efficacy % CC ([2]; 33 ug/ml): 86 % CC
Efficacy testing, mean optical density ([2]; 33 ug/ml): 2.0805
Efficacy testing, optical density of single wells ([2]; 33 ug/ml): 2.1945 and 1.9560 and 2.0909
Efficacy % CC ([2]; 100 ug/ml): 88 % CC
Efficacy testing, mean optical density ([2]; 100 ug/ml): 2.1221
Efficacy testing, optical density of single wells ([2]; 100 ug/ml): 2.2450 and 1.9588 and 2.1625
therapeutic index (TI=IC50/EC50) ([2]; HIV-1 RF in CEM-SS): greater than 5000
EC50 ([2]; Human immunodeficiency virus 1, CEM-SS, read-out: 50% effective concentration (EC50), RF laboratory strain of HIV-1 in CEM-SS): ~0.02 µg/mL (≈ 0.0636 µM)
Toxicity % CC ([3]; 0.01 ug/ml): 94 % CC
Toxicity % CC ([3]; 0.03 ug/ml): 103 % CC
Toxicity % CC ([3]; 0.10 ug/ml): 91 % CC
Toxicity % CC ([3]; 0.33 ug/ml): 94 % CC
Toxicity % CC ([3]; 1 ug/ml): 97 % CC
Toxicity % CC ([3]; 3 ug/ml (3.2 in Table 11)): 94 % CC
Toxicity % CC ([3]; 10 ug/ml): 100 % CC
Toxicity % CC ([3]; 32 ug/ml): 104 % CC
Toxicity % CC ([3]; 100 ug/ml): 111 % CC
IC50 ([3]; PBMC, read-out: IC50 (drug induced toxicity)): > 100 µg/mL
IC50 (drug induced toxicity) ([3]; PBMC, unit not given): greater than 100
Toxicity testing, mean optical density ([3]; 0.01 ug/ml): 1.3114
Toxicity testing, mean optical density ([3]; 0.03 ug/ml): 1.4316
Toxicity testing, mean optical density ([3]; 0.1 ug/ml): 1.2654
Toxicity testing, mean optical density ([3]; 0.33 ug/ml): 1.2992
Toxicity testing, mean optical density ([3]; 1 ug/ml): 1.3474
Toxicity testing, mean optical density ([3]; 3 ug/ml): 1.3102
Toxicity testing, mean optical density ([3]; 10 ug/ml): 1.3987
Toxicity testing, mean optical density ([3]; 32 ug/ml): 1.4463
Toxicity testing, mean optical density ([3]; 100 ug/ml): 1.5431
syncytium formation ([4]; co-cultivation): drastic drop
cell viability ([4]; co-cultivation, exponential cell growth): greater than ninety percent
viral burden (p24) after treatment ([4]; co-cultivation, from 1.7 ×10^6 pg of p24): 500 pg
progression of HIV-1 infection ([4]; compared to untreated controls): effectively blocked the progression of HIV-1 infection
